Reference: BindingDB's records for doi:10.7270/Q22V2DH9 (Nmmlsc, 2007)
pIC50: −log10 of the molar value.

These molecules were tested against T1, N-formyl peptide receptor 2 (Homo sapiens, UniProt P25090) (assay: human FPR2 ligand displacement potency – cell-based, flow cytometry, Ki from IC50, selectivity assay for FPR1 ligand SAR project, dose response (AID 723)).
T1 sequence (P25090 whole entry): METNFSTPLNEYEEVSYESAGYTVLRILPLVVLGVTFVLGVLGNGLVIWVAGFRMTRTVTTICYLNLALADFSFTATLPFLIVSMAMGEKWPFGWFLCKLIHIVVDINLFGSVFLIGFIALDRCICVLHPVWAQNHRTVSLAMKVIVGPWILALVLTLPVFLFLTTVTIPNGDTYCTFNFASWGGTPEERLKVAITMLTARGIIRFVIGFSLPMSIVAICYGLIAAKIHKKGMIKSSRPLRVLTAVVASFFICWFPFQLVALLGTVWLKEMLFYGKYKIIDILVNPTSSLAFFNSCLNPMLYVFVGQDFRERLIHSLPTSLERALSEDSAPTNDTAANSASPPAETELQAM

Row | Structure (SMILES) | pIC50
1 | CC(C)C(=O)N(Cc1ccco1)S(=O)(=O)c1cccc2cccnc12 [N-(2-furanylmethyl)-2-methyl-N-(8-quinolinylsulfonyl)propanamide] | < 4.18
2 | Cc1nc2c(-c3ccc(Cl)cc3)c(C(F)(F)F)[nH]n2c(=O)c1Cc1ccccc1 | < 4.18
3 | O=C(Oc1ccc2c(=O)c(-c3ccccc3Cl)c(C(F)(F)F)oc2c1)c1cccs1 | < 4.18
4 | O=C1C(=O)N(CN2CCOCC2)C(c2ccc(Br)cc2)C1C(=O)c1ccccc1 (stereo unspecified) [(4E)-5-(4-bromophenyl)-1-(morpholin-4-ylmethyl)-4-[oxidanyl(phenyl)methylidene]pyrrolidine-2,3-dione] | < 4.18
5 | O=C1C(=O)N(CCCn2ccnc2)C(c2cccnc2)C1C(=O)c1ccco1 (stereo unspecified) [3-(furan-2-carbonyl)-4-hydroxy-1-(3-imidazol-1-ylpropyl)-2-pyridin-3-yl-2H-pyrrol-5-one] | < 4.18
6 | CCCC(=O)N(Cc1ccco1)S(=O)(=O)c1cccc2cccnc12 [N-(2-furanylmethyl)-N-(8-quinolinylsulfonyl)butanamide] | < 4.18
7 | CCC(C)(C(=O)NC1CCCCC1)N(Cc1cccs1)C(C)=O (stereo unspecified) [2-[acetyl(2-thenyl)amino]-N-cyclohexyl-2-methyl-butyramide] | < 4.18
8 | N#Cc1c(N=C(CC(=O)c2ccccc2)C(=O)O)sc2c1CCC2 [(Z)-2-[(3-cyano-5,6-dihydro-4H-cyclopenta[b]thiophen-2-yl)amino]-4-keto-4-phenyl-but-2-enoic acid] | < 4.18
9 | COc1ccc(OC)c(CNC(=O)Cn2c(=O)sc3ccccc32)c1 [N-(2,5-dimethoxybenzyl)-2-(2-keto-1,3-benzothiazol-3-yl)acetamide] | < 4.18
10 | O=C1C(=O)N(CCCn2ccnc2)C(c2cccnc2)C1C(=O)c1cc2ccccc2o1 (stereo unspecified) [3-(1-benzofuran-2-carbonyl)-4-hydroxy-1-(3-imidazol-1-ylpropyl)-2-pyridin-3-yl-2H-pyrrol-5-one] | < 4.18
11 | COc1cc(C2C(C(C)=O)C(=O)C(=O)N2c2ccc(Br)cc2)ccc1O (stereo unspecified) [1-(4-bromophenyl)-3-ethanoyl-2-(3-methoxy-4-oxidanyl-phenyl)-4-oxidanyl-2H-pyrrol-5-one] | < 4.18
12 | COc1ccc(OC)c(C2C(C(=O)c3ccccc3)C(=O)C(=O)N2c2ccc(C)c(Cl)c2)c1 (stereo unspecified) [(4E)-1-(3-chloranyl-4-methyl-phenyl)-5-(2,5-dimethoxyphenyl)-4-[oxidanyl(phenyl)methylidene]pyrrolidine-2,3-dione] | < 4.18
13 | CCCCCCOc1cccc(N2C(=O)C(=O)C(C(=O)c3ccccc3)C2c2cccc(F)c2)c1 (stereo unspecified) [(4Z)-5-(3-fluorophenyl)-1-(3-hexoxyphenyl)-4-[hydroxy(phenyl)methylene]pyrrolidine-2,3-quinone] | < 4.18
14 | O=C(O)C1CCCCC1C(=O)Nc1ccc(Br)cc1 (stereo unspecified) [2-[(4-bromoanilino)-oxomethyl]-1-cyclohexanecarboxylic acid] | < 4.18
15 | COCCN1C(=O)C(=O)C(C(=O)c2ccccc2)C1c1cc(OC)ccc1OC (stereo unspecified) [(4E)-5-(2,5-dimethoxyphenyl)-1-(2-methoxyethyl)-4-[oxidanyl(phenyl)methylidene]pyrrolidine-2,3-dione] | < 4.18
16 | COc1ccc(C2C(C(=O)c3cccs3)C(=O)C(=O)N2CCN2CCOCC2)c(OC)c1 (stereo unspecified) [2-(2,4-dimethoxyphenyl)-1-(2-morpholin-4-ylethyl)-4-oxidanyl-3-thiophen-2-ylcarbonyl-2H-pyrrol-5-one] | < 4.18
17 | Cc1ccc(C(=O)C2C(=O)C(=O)N(c3nnc(C)s3)C2c2ccc(C(C)C)cc2)cc1 (stereo unspecified) [(4E)-4-[(4-methylphenyl)-oxidanyl-methylidene]-1-(5-methyl-1,3,4-thiadiazol-2-yl)-5-(4-propan-2-ylphenyl)pyrrolidine-2,3-dione] | < 4.18
18 | Cc1cccc(C2CC(=O)NC3=C2C(=O)CC(c2cccs2)C3)c1 (stereo unspecified) [4-(3-methylphenyl)-7-thiophen-2-yl-1,3,4,6,7,8-hexahydroquinoline-2,5-dione] | < 4.18
19 | CC(=O)C1C(=O)C(=O)N(CCc2c(C)[nH]c3ccccc23)C1c1cccc(F)c1 (stereo unspecified) | < 4.18
20 | COc1ccc(C2C(C(=O)N3CCCC(C)C3)c3ccccc3C(=O)N2C)cc1 (stereo unspecified) [3-(4-methoxyphenyl)-2-methyl-4-(3-methylpiperidin-1-yl)carbonyl-3,4-dihydroisoquinolin-1-one] | < 4.18
21 | COc1ccc(C2C(C(=O)c3cc4ccccc4o3)C(=O)C(=O)N2CCN(C)C)cc1OC (stereo unspecified) [3-(1-benzofuran-2-carbonyl)-2-(3,4-dimethoxyphenyl)-1-[2-(dimethylamino)ethyl]-4-hydroxy-2H-pyrrol-5-one] | < 4.18
22 | O=C(O)CCCN1C(=O)C(=O)C(C(=O)c2ccccc2)C1/C=C/c1ccccc1 (stereo unspecified) [4-[(4E)-2,3-bis(oxidanylidene)-4-[oxidanyl(phenyl)methylidene]-5-[(E)-2-phenylethenyl]pyrrolidin-1-yl]butanoic acid] | < 4.18
23 | COCCN1C(=O)C(=O)C(C(=O)c2ccccc2)C1c1ccccc1OC (stereo unspecified) [(4E)-1-(2-methoxyethyl)-5-(2-methoxyphenyl)-4-[oxidanyl(phenyl)methylidene]pyrrolidine-2,3-dione] | < 4.18
24 | COc1ccc(C2C(C(=O)c3ccccc3)C(=O)C(=O)N2c2cccc(Cl)c2)c(OC)c1 (stereo unspecified) [(4E)-1-(3-chlorophenyl)-5-(2,4-dimethoxyphenyl)-4-[hydroxy(phenyl)methylene]pyrrolidine-2,3-quinone] | < 4.18
25 | COc1ccc(C(=O)C2C(=O)C(=O)NC2c2ccc(OC)cc2OC)cc1 (stereo unspecified) [(4Z)-5-(2,4-dimethoxyphenyl)-4-[(4-methoxyphenyl)-oxidanyl-methylidene]pyrrolidine-2,3-dione] | < 4.18
26 | O=C1CC(c2ccccc2C(F)(F)F)C2=C(CC(c3cccs3)CC2=O)N1 (stereo unspecified) [7-(2-thienyl)-4-[2-(trifluoromethyl)phenyl]-1,3,4,6,7,8-hexahydroquinoline-2,5-quinone] | < 4.18
